Laboratory results as given in EP3071301B1, “QUERCUS PLANT EXTRACT AS ACTIVE AGENT WITH SKIN ANTI-AGEING PROPERTIES AND COSMETIC COMPOSITIONS CONTAINING IT” (Charlois Cosmetiques, priority 2013, dated 2015).

Tests used:
[1] = biological target: T1, hyaluronidase bovine (EC 3.2.1.35) (Bos taurus, UniProt Q2YDK3); assay: Hyaluronidase enzymatic activity inhibition (Experiment B); type: biochemical
T1 sequence (Q2YDK3 36-553): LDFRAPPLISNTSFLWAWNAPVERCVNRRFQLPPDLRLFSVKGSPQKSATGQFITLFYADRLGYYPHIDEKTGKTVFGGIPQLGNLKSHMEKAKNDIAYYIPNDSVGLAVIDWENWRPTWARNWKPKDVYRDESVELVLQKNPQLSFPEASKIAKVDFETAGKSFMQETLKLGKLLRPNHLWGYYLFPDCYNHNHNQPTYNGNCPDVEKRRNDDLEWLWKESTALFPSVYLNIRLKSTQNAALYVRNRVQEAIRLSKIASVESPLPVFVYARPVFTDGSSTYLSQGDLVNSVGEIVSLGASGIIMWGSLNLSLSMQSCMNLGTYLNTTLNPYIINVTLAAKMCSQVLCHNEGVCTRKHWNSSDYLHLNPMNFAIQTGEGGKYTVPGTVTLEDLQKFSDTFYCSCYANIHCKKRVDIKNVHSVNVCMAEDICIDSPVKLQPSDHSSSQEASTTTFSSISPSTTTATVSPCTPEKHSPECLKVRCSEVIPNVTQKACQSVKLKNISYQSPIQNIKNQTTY
Procedure: L'enzyme est la hyaluronidase bovine (EC 3.2.1.35), préparée tampon phosphate de sodium / chlorure de sodium / BSA, pH 7, et utilisée à 10 U/ml.
Le substrat est l'acide hyaluronique, préparé en tampon phosphate de sodium à pH 5,35 et testé à […].
Les principes actifs selon l'invention et la référence (acide 6-O-palmitoylascorbique, noté APA, testé à 300 µg/ml) sont mis en présence de la hyaluronidase et pré-incubés pendant 10 min à 37 °C sous agitation. L'acide hyaluronique est ensuite ajouté et les mélanges réactionnels sont incubés à 37 °C pendant 2 h. Des conditions contrôles sont réalisées en parallèle en incubant les principes actifs ou la référence en présence du substrat mais en absence de l'enzyme (Contrôle sans enzyme) ou en incubant les principes actifs ou la référence seuls (Contrôle interférence). Il est également réalisé un témoin en incubant l'enzyme seule (Témoin).
La réaction enzymatique est ensuite stoppée par précipitation de l'acide hyaluronique avec une solution tampon contenant de l'albumine de sérum bovin (BSA) à pH 3,75. […] L'activité est inversement proportionnelle à la valeur de DO mesurée.
(§1) Chaque expérience est tripliquée.
(§2) Les résultats sont exprimés en pourcentage d'activité de la hyaluronidase et en pourcentage d'inhibition de l'activité de la hyaluronidase. […]

[2] = Hydrogen peroxide assay (Amplex Red Hydrogen Peroxide/Peroxidase kit); conditions: hydrogen peroxide; 50 µM; 30 min
Description: (§3) Le principe actif E2 conforme à l'invention est soumis au test suivant, à des concentrations de 0,1; 0,3; 0,5; 1; 3 % p/p (% en poids de principe actif à tester, par rapport au poids final de milieu contenant le principe actif).
L'essai est réalisé au moyen du kit de dosage Amplex® Red Hydrogen Peroxyde/Peroxydase Assay Kit (Molecular Probes®), dont le réactif 10-acétyl-3,7-dihydroxyphénoxazine est utilisé pour déterminer la quantité de peroxyde d'hydrogène présent. Le substrat non coloré réagit avec le peroxyde d'hydrogène (H2O2) dans un rapport stoechiométrique 1:1 pour produire de la résofurine hautement fluorescente. […]
Le principe actif selon l'invention et le BHA (3-tert-butyl-4-hydroxyanisole), en tant que témoin, à une concentration de 50 µM, sont incubés en présence d'H2O2, de réactif Amplex® Red et d'enzyme Horse Radish Peroxydase (HRP) pendant 30 min à température ambiante. Puis la fluorescence est mesurée, pour une longueur d'onde d'excitation de 540 nm et une longueur d'onde d'émission de 590 nm.
Des contrôles d'auto-fluorescence et d'absorption de fluorescence (quenching) sont aussi réalisés pour chaque concentration de principe actif selon l'invention et du témoin. Les contrôles d'absorption de fluorescence sont réalisés en incubant le peroxyde d'hydrogène (H2O2), le réactif Amplex® Redet l'enzyme HRP pendant 30 min. […]

[3] = test system: MMP totales; assay: Total matrix metalloprotease (MMP) activity inhibition, fluorogenic peptide; type: biochemical, humains
Description: Le principe actif E2 conforme à l'invention est soumis au test suivant, à des concentrations de 1 et 3 % p/p, selon le protocole décrit dans la publication de Sim et al., 2007, Arch Pharm Res, 30(3): 290-298.
Les MMP totales (obtenues selon un protocole standard à partir de surnageants de fibroblastes dermiques humains normaux, irradiés avec des UVB (20 mJ/cm^2)) sont traitées par le mélange inflammatoire acétate de phorbol myristate (PMA) et facteur de nécrose tumorale (TNFα).
Le substrat fluorescent est le peptide fluorogénique décrit dans la publication de Lee et al., 1999, Annals of the New York Academy of Sciences, 878: 635-637, et commercialisé sous la référence M6412 par la société Sigma-Aldrich.
Le principe actif E2 conforme à l'invention ou le témoin (O-phénantroline testée à 0,03; 0,1; 0,3 et 1 mM) sont préincubés pendant 10 min sur glace en présence des MMP totales activées, puis le substrat fluorescent est ajouté. Les plaques ont été incubées pendant 3h à 37°C. Un contrôle d'interférence du composé (composé en présence du mélange réactionnel sans enzyme) et un contrôle « quenching » (mélange réactionnel contenant le substrat et l'enzyme dans lequel le composé n'est ajouté qu'en fin d'incubation) ont été réalisés en parallèle. Le contrôle […] permet de vérifier l'absorption non spécifique de la fluorescence par le composé et donc la spécificité de l'inhibition observée dans la condition test correspondante.
as §1
A la fin de l'incubation, la fluorescence produite suite à la dégradation du substrat est mesurée par fluorimétrie pour une longueur d'onde d'excitation de 328 nm et une longueur d'onde d'émission de 393 nm, au moyen du dispositif SpectroMax Gemini, Molecular Devices.
Le % d'inhibition des MMPs totales est calculé pour chaque échantillon testé. Les résultats obtenus sont montrés dans le tableau 6 ci-après. Tableau 6 - Inhibition de l'activité des MMP totales par le principe actif E2 conforme à l'invention

[4] = biological target: T2, hyaluronidase (EC 3.2.1.35) (Bos taurus, UniProt Q2YDK3); assay: Hyaluronidase activity inhibition (Experiment A); type: biochemical
T2 sequence (Q2YDK3 36-553): T1 sequence (Q2YDK3 36-553)
Description: as §3
Le substrat est l'acide hyaluronique, testé à 0,04 % en tampon phosphate de sodium.
L'enzyme est la hyaluronidase (EC 3.2.1.35) testée à 10 U/ml en tampon phosphate de sodium / chlorure de sodium / BSA.
Le principe actif selon l'invention et les témoins (vitamine C à 10 mg/l et palmitate d'ascorbyle à 200 µg/ml) sont mis en présence de la hyaluronidase et incubés pendant 10 min à 37 °C sous agitation. L'acide hyaluronique est ensuite ajouté et les mélanges réactionnels sont incubés à 37 °C pendant 2 h. Des conditions contrôles additionnelles sont réalisées en incubant le produit et le substrat en l'absence de l'enzyme, ou en incubant le produit seul correspondant à un contrôle interférence. La réaction enzymatique est ensuite stoppée par précipitation de l'acide hyaluronique avec une solution d'albumine de sérum bovin (BSA). L'absorption (DO) à 540 nm est mesurée à l'aide d'un lecteur de microplaques (ThermoMax, Molecular Devices).
as §1, §2

Molecule `CCCCCCCCCCCCCCCC(=O)OC[C@H](O)[C@H]1OC(=O)C(O)=C1O` [APA, acide 6-O-palmitoylascorbique] has an inhibition at 300 µg/mL [1] of 79% and an activity at 300 µg/mL ([1]; read-out: Activité hyaluronidase (%)) of 21%.
In the case of `COc1ccc(O)c(C(C)(C)C)c1` [BHA, 3-tert-butyl-4-hydroxyanisole], the “% inhibition” value [2] was 60%.
For `c1cnc2c(c1)ccc1cccnc12` [O-Phénanthroline], the “% inhibition” value ([3]; 0,1 mM, 100 µM) was 15%, the “% inhibition” value ([3]; 0,03 mM, 30 µM) was 1% and the “% inhibition” value ([3]; 0,3 mM, 300 µM) was 73%. The “% inhibition” value ([3]; 1 mM) was 97%.
Work on `CCCCCCCCCCCCCCCC(=O)OC[C@H](O)[C@H]1OC(=O)C(O)=C1O` [Palmitate d'ascorbyle, palmitate d'ascorbyle] yielded an inhibition at 200 µg/mL ([4]; 200 µg/ml) of 80%.
`O=C1O[C@H]([C@@H](O)CO)C(O)=C1O` [Vitamine C] gave an inhibition at 10000 µg/mL ([4]; 10 mg/ml) of 71%.
